What follows are compounds tested on A549 (assay: 72-h MTT cytotoxicity assay, A549). Conditions: Homo sapiens, Table 4, additional data for cytotoxicity assay using the A549 cell line; read-out: A549.
Format: cell-based, human
Protocol: Selected compounds from the above examples were subjected to a standard cellular proliferation assay using a range of different human tumour cell lines. Standard 72-h MTT (thiazolyl blue; 3-{4,5-dimethylthiazol-2-yl}-2,5-diphenyltetrazolium bromide) assays were performed (Haselsberger, K.; Peterson, D. C.; Thomas, D. G.; Darling, J. L. Anti Cancer Drugs 1996, 7, 331-8; Loveland, B. E.; Johns, T. G.; Mackay, I. R.; Vaillant, F.; Wang, Z. X.; Hertzog, P. J. Biochemistry International 1992, 27, 501-10). Human tumour cell lines were obtained from the ATCC (American Type Culture Collection, 10801 University Boulevard, Manessas, Va. 20110-2209, USA).
Compound `CCOC(=O)c1cc(Nc2nccc(-c3sc(C)nc3C)n2)ccc1Cl` [Compound 92, 2-Chloro-5-{4-(2,4-dimethyl-thiazol-5-yl)-pyrimidin-2-ylamino}-benzoic acid ethyl ester] has an IC50 of 4.4 ± 3 µM.
`COc1cc(-c2cc(-c3sc(C)nc3C)nc(Nc3ccc(F)cc3)n2)cc(OC)c1O` [Compound 69, 4-{6-(2,4-Dimethyl-thiazol-5-yl)-2-(4-fluoro-phenylamino)-pyrimidin-4-yl}-2,6-dimethoxy-phenol] was tested, and the IC50 was 12 ± 5 µM.
`Cc1nc(C)c(-c2ccnc(Nc3cccc(C(F)(F)F)c3)n2)s1` [Compound 26, {4-(2,4-Dimethyl-thiazol-5-yl)-pyrimidin-2-yl}-(3-trifluoromethyl-phenyl)-amine] was tested, and the IC50 was 3.3 µM.
In the case of `Cc1nc(C)c(-c2cc(-c3ccc(O)cc3)nc(Nc3ccc(F)cc3)n2)s1` [Compound 70, 4-{6-(2,4-Dimethyl-thiazol-5-yl)-2-(4-fluoro-phenylamino)-pyrimidin-4-yl}-phenol], the IC50 is reported as 3 ± 1 µM.
`CNc1nc(C)c(-c2ccnc(Nc3cccc(O)c3)n2)s1` [Compound 85, 3-{4-(4-Methyl-2-methylamino-thiazol-5-yl)-pyrimidin-2-ylamino}-phenol] gave an IC50 of 0.4 µM.
Work on `Clc1cc(-c2ccnc(Nc3ccccc3Cl)n2)c(Cl)s1` [Compound 2, (2-Chloro-phenyl)-{4-(2,5-dichloro-thiophen-3-yl)-pyrimidin-2-yl}-amine] yielded an IC50 of 41 ± 8 µM.
`Cc1cc(-c2ccnc(Nc3ccccc3Cl)n2)c(C)s1` [Compound 15, (2-Chloro-phenyl)-{4-(2,5-dimethyl-thiophen-3-yl)-pyrimidin-2-yl}-amine] showed an IC50 of 6 µM.
Work on `Cc1nc(C)c(-c2ccnc(NS(=O)(=O)c3cccc([N+](=O)[O-])c3)n2)s1` [Compound 42, N-{4-(2,4-Dimethyl-thiazol-5-yl)-pyrimidin-2-yl}-3-nitro-benzenesulfonamide] yielded an IC50 of 56 µM.
`Cc1nc(C)c(-c2ccnc(Nc3ccccc3I)n2)s1` [Compound 32, {4-(2,4-Dimethyl-thiazol-5-yl)-pyrimidin-2-yl}-(2-iodo-phenyl)-amine] was tested, and the IC50 was 23 µM.
In the case of `Cc1nc(C)c(-c2ccnc(Nc3cc(Cl)cc(Cl)c3)n2)s1` [Compound 24, (3,5-Dichloro-phenyl)-{4-(2,4-dimethyl-thiazol-5-yl)-pyrimidin-2-yl}-amine], the IC50 is reported as 5 µM.
For `Cc1nc(C)c(-c2ccnc(Nc3cccc(Cl)c3)n2)s1` [Compound 7, (3-Chloro-phenyl)-{4-(2,4-dimethyl-thiazol-5-yl)-pyrimidin-2-yl}-amine], the IC50 was 2.8 µM.
Work on `Cc1nc(C)c(-c2ccnc(Nc3ccc(O)cc3)n2)s1` [Compound 41, 4-{4-(2,4-Dimethyl-thiazol-5-yl)-pyrimidin-2-ylamino}-phenol] yielded an IC50 of 0.02 µM.
`CCOC(=O)c1cccc(Cl)c1Nc1nccc(-c2sc(C)nc2C)n1` [Compound 93, 3-Chloro-2-{4-(2,4-dimethyl-thiazol-5-yl)-pyrimidin-2-ylamino}-benzoic acid ethyl ester] gave an IC50 of 1.1 ± 1 µM.
With `Clc1cccc(Nc2nccc(-c3cc(Cl)sc3Cl)n2)c1` [Compound 4, (3-Chloro-phenyl)-{4-(2,5-dichloro-thiophen-3-yl)-pyrimidin-2-yl}-amine] the IC50 was 16 ± 11 µM.
`Cc1nc(C)c(-c2ccnc(Nc3cccc(F)c3)n2)s1` [Compound 35, {4-(2,4-Dimethyl-thiazol-5-yl)-pyrimidin-2-yl}-(3-fluoro-phenyl)-amine] gave an IC50 of 4.2 µM.
Work on `Cc1nc(C)c(-c2ccnc(Nc3ccc(Cl)cc3Cl)n2)s1` [Compound 25, (2,4-Dichloro-phenyl)-{4-(2,4-dimethyl-thiazol-5-yl)-pyrimidin-2-yl}-amine] yielded an IC50 of 1.5 µM.

Same assay, conditions: Table 4, additional data for cytotoxicity assay using the A549 cell line; read-out: A549
With `C=CCNc1nc(C)c(-c2ccnc(Nc3cccc([N+](=O)[O-])c3)n2)s1` [Compound 91, {4-(2-Allylamino-4-methyl-thiazol-5-yl)-pyrimidin-2-yl}-(3-nitro-phenyl)-amine] the IC50 was 22.1 ± 0.2 µM.
For `Cc1nc(C)c(-c2cc(-c3ccccc3)nc(Nc3cccc([N+](=O)[O-])c3)n2)s1` [Compound 57, {4-(2,4-Dimethyl-thiazol-7-yl)-6-phenyl-pyrimidin-2-yl}-(3-nitro-phenyl)-amine], the IC50 was 5.2 ± 0.4 µM.
